Data taken from ChEMBL document CHEMBL6134833, “Recent advances in CDC7 kinase inhibitors: Novel strategies for the treatment of cancers and neurodegenerative diseases” (Eur J Med Chem, 2025).

Experiments:
[1] = target: Cyclin-dependent kinase 2/cyclin A (Homo sapiens, UniProt P24941); test: Inhibition of CDK2/Cyclin A (unknown origin); format: protein-complex assay
Casein kinase 2 = Casein kinase 2 (Homo sapiens, UniProt P67870+P68400+P19784+Q8NEV1); test: Inhibition of CK2 (unknown origin); format: protein assay
[2] = Metabolic stability in rat liver microsome assessed as microsomal clearance; format: ADME; conditions: microsomes
[3] = Metabolic stability in human liver microsome assessed as microsomal clearance; format: ADME; conditions: microsomes
[4] = Inhibition of MCM2 (unknown origin); set-up: species or system Homo sapiens
CDK3/Cyclin E = CDK3/Cyclin E (Homo sapiens, UniProt Q00526); test: Inhibition of CDK3/cyclin E1 (unknown origin) by ADP-Glo kinase assay; format: protein-complex assay
Chain of CDK3/Cyclin E (P24864 whole entry): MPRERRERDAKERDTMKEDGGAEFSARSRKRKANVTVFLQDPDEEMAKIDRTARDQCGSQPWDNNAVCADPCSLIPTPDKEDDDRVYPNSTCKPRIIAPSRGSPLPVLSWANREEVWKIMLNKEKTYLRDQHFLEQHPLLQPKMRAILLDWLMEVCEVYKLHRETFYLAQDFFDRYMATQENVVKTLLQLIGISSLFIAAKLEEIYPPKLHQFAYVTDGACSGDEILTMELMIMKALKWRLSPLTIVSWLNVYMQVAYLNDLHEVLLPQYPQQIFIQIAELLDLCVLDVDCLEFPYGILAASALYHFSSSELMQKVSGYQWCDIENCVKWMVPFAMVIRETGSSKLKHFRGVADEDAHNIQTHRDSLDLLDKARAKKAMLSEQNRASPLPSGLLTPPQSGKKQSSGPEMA
Chain of CDK3/Cyclin E (Q00526 whole entry): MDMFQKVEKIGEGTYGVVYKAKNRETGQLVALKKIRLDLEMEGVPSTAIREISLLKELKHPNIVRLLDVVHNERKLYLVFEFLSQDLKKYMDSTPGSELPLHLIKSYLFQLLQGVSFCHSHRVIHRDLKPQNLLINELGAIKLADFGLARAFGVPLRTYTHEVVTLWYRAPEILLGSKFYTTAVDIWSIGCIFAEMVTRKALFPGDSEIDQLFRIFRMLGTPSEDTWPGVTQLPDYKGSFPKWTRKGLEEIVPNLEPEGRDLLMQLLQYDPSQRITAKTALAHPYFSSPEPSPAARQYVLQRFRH

[5] = target: T1, Cell division cycle 7-related protein kinase (Homo sapiens, UniProt O00311); test: Inhibition of CDC7 (unknown origin)
T1 sequence (O00311 whole entry, the tested form may be a part): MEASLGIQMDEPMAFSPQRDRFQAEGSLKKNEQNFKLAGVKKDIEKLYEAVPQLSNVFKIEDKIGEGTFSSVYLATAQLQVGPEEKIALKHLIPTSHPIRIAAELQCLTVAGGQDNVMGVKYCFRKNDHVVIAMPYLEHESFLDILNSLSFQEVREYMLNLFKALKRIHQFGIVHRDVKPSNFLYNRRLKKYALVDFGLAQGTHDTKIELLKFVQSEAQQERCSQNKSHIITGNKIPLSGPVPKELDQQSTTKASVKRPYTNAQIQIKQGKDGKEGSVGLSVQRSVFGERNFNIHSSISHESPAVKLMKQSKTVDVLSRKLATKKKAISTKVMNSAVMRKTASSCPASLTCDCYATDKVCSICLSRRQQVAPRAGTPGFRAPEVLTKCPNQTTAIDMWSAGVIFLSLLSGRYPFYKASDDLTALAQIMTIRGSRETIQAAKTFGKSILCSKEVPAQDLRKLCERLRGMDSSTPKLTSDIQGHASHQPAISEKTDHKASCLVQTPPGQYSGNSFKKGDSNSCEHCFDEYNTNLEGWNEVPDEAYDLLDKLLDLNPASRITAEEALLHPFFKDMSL

[6] = target: T1, Cell division cycle 7-related protein kinase; test: Inhibition of GST full length human CDC7 (1 to 574 residues) expressed in baculovirus expression system

Question: Which IC50 [1] does the source give for `NC(=O)c1cc(-c2ccncc2)[nH]c1-c1ccccc1` here?
Answer: The IC50 was 1.1 µM.

Question: With `O=c1[nH]cnc2c1oc1ccc(Br)cc12` as the compound, how does the IC50 (Casein kinase 2) read?
Answer: The IC50 was 1.5 µM.

Question: For `O=c1[nH]c([C@@H]2CCCN2)nc2c1oc1ccc(Cl)cc12`, which IC50 (Casein kinase 2) is on record?
Answer: The IC50 was 0.215 µM.

Question: Which CLH [2] does the source give for `Nc1nccc(-n2cc(-c3cccnc3Cl)c3cnc(Cl)cc32)n1` here?
Answer: The CLH was 102 µL/min/µg.

Question: What about the CLH [3] of the same compound?
Answer: Its CLH is 30 µL/min/µg.

Question: Which CLH [2] does the source give for `Nc1nccc(-n2cc(-c3cccnc3Cl)c3cnccc32)n1` here?
Answer: The CLH was 72 µL/min/µg.

Question: What about the CLH [3] of the same compound?
Answer: Its CLH is 21 µL/min/µg.

Question: For `Nc1nccc(-n2ccc3ncccc32)n1`, which CLH [2] is on record?
Answer: Its CLH is 50 µL/min/µg.

Question: And the CLH [3]?
Answer: The CLH was 60 µL/min/µg.

Question: Which CLH [2] does the source give for `Nc1nccc(-n2ccc3cnccc32)n1` here?
Answer: Its CLH is 101 µL/min/µg.

Question: What about the CLH [3] of the same compound?
Answer: Its CLH is 62 µL/min/µg.

Question: Which IC50 [4] does the source give for `Cc1n[nH]cc1-c1cc2nc([C@@H]3CCCCN3)[nH]c(=O)c2s1` here?
Answer: Its IC50 is 0.036 µM.

Question: What about the IC50 (CDK3/Cyclin E) of the same compound?
Answer: Its IC50 is 6.5 µM.

Question: Which IC50 [5] does the source give for `N[C@H](c1nc2cc(-c3ccncc3F)sc2c(=O)[nH]1)C1CC1` here?
Answer: Its IC50 is under 1 µM.

Question: Which IC50 [6] does the source give for `Cn1nccc1-c1nc(C2CCOCC2)c(Cl)c(=O)[nH]1` here?
Answer: The IC50 was 0.0912 µM.

Question: With `O=c1[nH]c([C@@H]2CC3CCN2CC3)nc2c3c(sc12)-c1c[nH]nc1CCC3` as the compound, how does the IC50 [5] read?
Answer: The IC50 was 3.02 µM.

Question: For `Cc1[nH]c(=O)c2sc(-c3cn[nH]c3)c3c2c1CCCO3`, which IC50 [5] is on record?
Answer: The IC50 was under 1 µM.
